Assay results taken from PubChem BioAssay (NCI).
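Growth conditions: 96-well plates. Treatment: test compound, 48 hours, 5 concentrations. Analysis: linear interpolation between bracketing concentrations; unreached endpoints set to highest concentration. At the GI50, growth is halved. TGI marks complete inhibition of growth.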

Columns and labels:
Experiment in all cases: growth of human tumour cells (NCI), 48 h
RPMI-8226 leukemia = test system: RPMI-8226 leukemia
KM12 colon = test system: KM12 colon
SF-295 CNS = test system: SF-295 CNS
HCT-15 colon = test system: HCT-15 colon
COLO 205 colon = test system: COLO 205 colon
786-0 renal = test system: 786-0 renal
HL-60(TB) leukemia = test system: HL-60(TB) leukemia
MCF7 breast = test system: MCF7 breast
DU-145 prostate = test system: DU-145 prostate
NCI-H460 lung = test system: NCI-H460 lung
IGROV1 ovarian = test system: IGROV1 ovarian
EKVX NSCLC = test system: EKVX NSCLC
A549 NSCLC = test system: A549 NSCLC
BT-549 breast = test system: BT-549 breast
NCI-H23 lung = test system: NCI-H23 lung
M14 melanoma = test system: M14 melanoma
LOX IMVI melanoma = test system: LOX IMVI melanoma
SW-620 colon = test system: SW-620 colon
T-47D breast = test system: T-47D breast
TK-10 renal = test system: TK-10 renal
OVCAR-3 ovarian = test system: OVCAR-3 ovarian
OVCAR-8 ovarian = test system: OVCAR-8 ovarian
A498 renal = test system: A498 renal
SK-MEL-5 melanoma = test system: SK-MEL-5 melanoma
UACC-62 melanoma = test system: UACC-62 melanoma
CCRF-CEM leukemia = test system: CCRF-CEM leukemia
UO-31 renal = test system: UO-31 renal
UACC-257 melanoma = test system: UACC-257 melanoma
NCI-H226 lung = test system: NCI-H226 lung
SF-539 CNS = test system: SF-539 CNS
MALME-3M melanoma = test system: MALME-3M melanoma
SN12C renal = test system: SN12C renal
MDA-MB-231 breast = test system: MDA-MB-231 breast
RXF 393 renal = test system: RXF 393 renal
CAKI-1 renal = test system: CAKI-1 renal
HT29 colon = test system: HT29 colon
SNB-19 CNS = test system: SNB-19 CNS
SK-MEL-2 melanoma = test system: SK-MEL-2 melanoma
HS 578T breast = test system: HS 578T breast
NCI-H522 lung = test system: NCI-H522 lung
NCI/ADR-RES ovarian = test system: NCI/ADR-RES ovarian
ACHN renal = test system: ACHN renal
U251 CNS = test system: U251 CNS
SF-268 CNS = test system: SF-268 CNS
HCC-2998 colon = test system: HCC-2998 colon
MDA-MB-435 = test system: MDA-MB-435
HCT-116 colon = test system: HCT-116 colon
SK-MEL-28 melanoma = test system: SK-MEL-28 melanoma
OVCAR-5 ovarian = test system: OVCAR-5 ovarian
PC-3 prostate = test system: PC-3 prostate
SR leukemia = test system: SR leukemia
K-562 leukemia = test system: K-562 leukemia
HOP-62 NSCLC = test system: HOP-62 NSCLC
SK-OV-3 ovarian = test system: SK-OV-3 ovarian
OVCAR-4 ovarian = test system: OVCAR-4 ovarian
MOLT-4 leukemia = test system: MOLT-4 leukemia
HOP-92 NSCLC = test system: HOP-92 NSCLC

`CCOC(=O)C(Br)(C(N)=O)C1(O)OC(c2ccccc2)=C(Br)C1=O` (stereo unspecified) gave a TGI (RPMI-8226 leukemia) of 27.7 µM, a TGI (KM12 colon) greater than 100 µM and a TGI (SF-295 CNS) greater than 100 µM. The TGI (HCT-15 colon) was 34.8 µM, the TGI (COLO 205 colon) was 30.7 µM and the TGI (786-0 renal) was 41.9 µM. It also gave a TGI (HL-60(TB) leukemia) greater than 100 µM, a TGI (MCF7 breast) of 41 µM and a TGI (DU-145 prostate) greater than 100 µM. It also gave a TGI (NCI-H460 lung) greater than 100 µM, a TGI (IGROV1 ovarian) of 43.5 µM and a TGI (EKVX NSCLC) of 46.8 µM. It also gave a TGI (A549 NSCLC) of 66.8 µM, a TGI (BT-549 breast) of 34.3 µM and a TGI (NCI-H23 lung) of 53.7 µM. The TGI (M14 melanoma) was 62.9 µM, the TGI (LOX IMVI melanoma) was 46.1 µM and the TGI (SW-620 colon) was 43.1 µM. It also gave a TGI (T-47D breast) of 59.6 µM, a TGI (TK-10 renal) of 33.3 µM and a TGI (OVCAR-3 ovarian) of 55 µM. It also gave a TGI (OVCAR-8 ovarian) of 33.3 µM, a TGI (A498 renal) greater than 100 µM and a TGI (SK-MEL-5 melanoma) of 60.2 µM. The TGI (UACC-62 melanoma) was 92.9 µM, the TGI (CCRF-CEM leukemia) was 10.2 µM and the TGI (UO-31 renal) was 44 µM. The TGI (UACC-257 melanoma) was greater than 100 µM, the TGI (NCI-H226 lung) was 42.3 µM and the TGI (SF-539 CNS) was 32.3 µM. For the same compound, the TGI (MALME-3M melanoma) was 55.6 µM, the TGI (SN12C renal) was 31.7 µM and the TGI (MDA-MB-231 breast) was 33.6 µM. The TGI (RXF 393 renal) was 34.4 µM, the TGI (CAKI-1 renal) was 40.1 µM and the TGI (HT29 colon) was 39.3 µM. It also gave a TGI (SNB-19 CNS) greater than 100 µM, a TGI (SK-MEL-2 melanoma) greater than 100 µM and a TGI (HS 578T breast) greater than 100 µM. The TGI (NCI-H522 lung) was 11.7 µM, the TGI (NCI/ADR-RES ovarian) was greater than 100 µM and the TGI (ACHN renal) was 32.3 µM. The TGI (U251 CNS) was 32.6 µM, the TGI (SF-268 CNS) was 41.5 µM and the TGI (HCC-2998 colon) was 35 µM. The TGI (MDA-MB-435) was greater than 100 µM, the TGI (HCT-116 colon) was 36.5 µM and the TGI (SK-MEL-28 melanoma) was greater than 100 µM. For the same compound, the TGI (OVCAR-5 ovarian) was 37 µM, the TGI (PC-3 prostate) was 36.3 µM and the TGI (SR leukemia) was 41.3 µM. It also gave a TGI (K-562 leukemia) of 53.7 µM, a TGI (HOP-62 NSCLC) of 81.2 µM and a TGI (SK-OV-3 ovarian) greater than 100 µM.
In the case of `O=C(/C=C\Sc1ccccn1)c1cccc(Br)c1`, the GI50 (RPMI-8226 leukemia) is reported as 0.0787 µM, the TGI (RPMI-8226 leukemia) is reported as greater than 100 µM and the GI50 (OVCAR-4 ovarian) is reported as 5.71 µM. The TGI (OVCAR-4 ovarian) was greater than 100 µM, the GI50 (KM12 colon) was 13.4 µM and the TGI (KM12 colon) was 28.8 µM. For the same compound, the GI50 (SF-295 CNS) was 16 µM, the TGI (SF-295 CNS) was 39.6 µM and the GI50 (HCT-15 colon) was 1.4 µM. The TGI (HCT-15 colon) was 3.23 µM, the GI50 (COLO 205 colon) was 5.27 µM and the TGI (COLO 205 colon) was greater than 100 µM. For the same compound, the GI50 (786-0 renal) was 2.67 µM, the TGI (786-0 renal) was 6.48 µM and the GI50 (HL-60(TB) leukemia) was 2.25 µM. The TGI (HL-60(TB) leukemia) was 6.32 µM, the GI50 (MCF7 breast) was 1.77 µM and the TGI (MCF7 breast) was 6.18 µM. For the same compound, the GI50 (DU-145 prostate) was 16.3 µM, the TGI (DU-145 prostate) was 30.7 µM and the GI50 (NCI-H460 lung) was 9.41 µM. It also gave a TGI (NCI-H460 lung) of 29.6 µM, a GI50 (IGROV1 ovarian) of 16.5 µM and a TGI (IGROV1 ovarian) of 50.4 µM. It also gave a GI50 (EKVX NSCLC) of 19.3 µM, a TGI (EKVX NSCLC) of 35.7 µM and a GI50 (MOLT-4 leukemia) of 1.6 µM. For the same compound, the TGI (MOLT-4 leukemia) was 4.23 µM, the GI50 (A549 NSCLC) was 23 µM and the TGI (A549 NSCLC) was 80.3 µM. It also gave a GI50 (BT-549 breast) of 7.29 µM, a TGI (BT-549 breast) of 32 µM and a GI50 (NCI-H23 lung) of 10.8 µM. It also gave a TGI (NCI-H23 lung) of 25.1 µM, a GI50 (M14 melanoma) of 15 µM and a TGI (M14 melanoma) of 43.4 µM. The GI50 (LOX IMVI melanoma) was 1.69 µM, the TGI (LOX IMVI melanoma) was 3.12 µM and the GI50 (HOP-92 NSCLC) was 2.64 µM. For the same compound, the TGI (HOP-92 NSCLC) was 7.85 µM, the GI50 (SW-620 colon) was 2.82 µM and the TGI (SW-620 colon) was 8.41 µM. For the same compound, the GI50 (T-47D breast) was 7.54 µM, the TGI (T-47D breast) was greater than 100 µM and the GI50 (TK-10 renal) was 3.25 µM. It also gave a TGI (TK-10 renal) of 12.2 µM, a GI50 (OVCAR-3 ovarian) of 5.54 µM and a TGI (OVCAR-3 ovarian) of 24.2 µM. The GI50 (OVCAR-8 ovarian) was 3.53 µM, the TGI (OVCAR-8 ovarian) was greater than 100 µM and the GI50 (A498 renal) was 19.5 µM. The TGI (A498 renal) was 36.5 µM, the GI50 (SK-MEL-5 melanoma) was 14.1 µM and the TGI (SK-MEL-5 melanoma) was 28 µM. The GI50 (UACC-62 melanoma) was 11.7 µM, the TGI (UACC-62 melanoma) was 24.5 µM and the GI50 (CCRF-CEM leukemia) was 3 µM. It also gave a TGI (CCRF-CEM leukemia) greater than 100 µM, a GI50 (UO-31 renal) of 5.15 µM and a TGI (UO-31 renal) of 23.1 µM. For the same compound, the GI50 (UACC-257 melanoma) was 21.2 µM, the TGI (UACC-257 melanoma) was 43.4 µM and the GI50 (NCI-H226 lung) was 2.32 µM. For the same compound, the TGI (NCI-H226 lung) was 5.46 µM, the GI50 (SF-539 CNS) was 8.15 µM and the TGI (SF-539 CNS) was 25 µM. It also gave a GI50 (MALME-3M melanoma) of 2.83 µM, a TGI (MALME-3M melanoma) of 8.97 µM and a GI50 (SN12C renal) of 10.2 µM. The TGI (SN12C renal) was 24.3 µM, the GI50 (MDA-MB-231 breast) was 2.35 µM and the TGI (MDA-MB-231 breast) was 5.96 µM. The GI50 (RXF 393 renal) was 2.64 µM, the TGI (RXF 393 renal) was 8.62 µM and the GI50 (CAKI-1 renal) was 3.99 µM. The TGI (CAKI-1 renal) was 17.2 µM, the GI50 (HT29 colon) was 3.46 µM and the TGI (HT29 colon) was greater than 100 µM. It also gave a GI50 (SNB-19 CNS) of 39.1 µM, a TGI (SNB-19 CNS) greater than 100 µM and a GI50 (HS 578T breast) of 19.5 µM. The TGI (HS 578T breast) was 83.3 µM, the GI50 (NCI-H522 lung) was 2.28 µM and the TGI (NCI-H522 lung) was 5.84 µM. For the same compound, the GI50 (NCI/ADR-RES ovarian) was 8.8 µM, the TGI (NCI/ADR-RES ovarian) was greater than 100 µM and the GI50 (ACHN renal) was 1.65 µM. The TGI (ACHN renal) was 3 µM, the GI50 (U251 CNS) was 10.2 µM and the TGI (U251 CNS) was 21.8 µM. The GI50 (SF-268 CNS) was 6.53 µM, the TGI (SF-268 CNS) was 26.4 µM and the GI50 (HCC-2998 colon) was 3.9 µM. The TGI (HCC-2998 colon) was 15 µM, the GI50 (MDA-MB-435) was 9.12 µM and the TGI (MDA-MB-435) was 77.9 µM. The GI50 (HCT-116 colon) was 1.95 µM, the TGI (HCT-116 colon) was 3.85 µM and the GI50 (SK-MEL-28 melanoma) was 8.65 µM. For the same compound, the TGI (SK-MEL-28 melanoma) was greater than 100 µM, the GI50 (OVCAR-5 ovarian) was 15 µM and the TGI (OVCAR-5 ovarian) was 29.5 µM. It also gave a GI50 (PC-3 prostate) of 7.68 µM, a TGI (PC-3 prostate) of 22.5 µM and a GI50 (SR leukemia) of 1.68 µM. It also gave a TGI (SR leukemia) of 3.79 µM, a GI50 (K-562 leukemia) of 2.23 µM and a TGI (K-562 leukemia) of 6.63 µM. For the same compound, the GI50 (HOP-62 NSCLC) was 17.4 µM, the TGI (HOP-62 NSCLC) was 33.7 µM and the GI50 (SK-OV-3 ovarian) was greater than 100 µM. The TGI (SK-OV-3 ovarian) was greater than 100 µM.
